Where two headings read alike, the source gives them in different places.
Experiments:
Paenibacillus larvae = experiment: Antimicrobial assay in BHI liquid medium, vegetative forms of Paenibacillus larvae (MIC); type: cell-based; conditions: for MIC: Paenibacillus larvae
Experimental: For the evaluation of certain fatty acids and phospholipids, overnight cultures of vegetative forms of Pl were used (for results see Table 1.1).
As test organisms, several different strains of Paenibacillus larvae were used.
Overnight cultures of the vegetative forms of bacteria were prepared in BHI (brain heart infusion) liquid medium.
From these overnight cultures, an inoculum of 50 μl is added to 1.0 ml of BHI liquid medium to perform the bacterial test in liquid medium. The compound 1-O-oleoyl-sn-glycero-3-phosphocholine (oleoyl-LPC) together with a positive control was then added at concentrations of 2, 5 and 10 ppm and the test tubes were incubated for 24 h at 34.5° C. Then, the extinction of the solution was measured photometrically.

honeybee larvae = type: in vivo; conditions: LPC 10 μg/larva added on day 1, Nlarvae 192
Experimental: First instar larvae were transferred into plastic queen cups and fed the following diets: On the first day 10 μL of diet containing 6% glucose, 6% fructose, 1% yeast extract and 50% royal jelly were fed. Test substances (1-O-oleoyl-sn-glycero-3-phosphocholine (oleoyl-LPC), stearic acid, lysophosphatidylinositol and linoleic acid) were added to the first diet in amounts of 0.5 to 10 μg/larvae. For infection with spores of Paenibacillus larvae, larvae were grafted into 5 μL of diet containing test substances and subsequently 5 μL of diet with about 50 added Pl spores were given. Larvae were not fed on the second day to assure the consumption of the given diet. On the third day 20 μL of diet containing 7.5% glucose, 7.5% fructose, 1.5% yeast extract and 50% royal jelly were fed. Amounts of 30, 40 and 60 μL of diet composed of 9% glucose, 9% fructose, 2% yeast extract and 50% royal jelly were fed on the 4th, 5th and 6th day (method modified after Aupinel et al. [Aupinel et al. 2005. Bull Insectol 58:107-111]. Larvae were incubated at 34.5° C. and 95% relative humidity which was reduced to 80% on day 7. The mortality was checked daily for the first 7 days and when individuals emerged from queen cups at day 18 after the transfer into cups. To reduce the time for sporulation of Pl in the lab for security reasons, infection tests with Pl spores were stopped at day 7 with some experiments extend to day 12.
Larvae were fed according to a slightly modified rearing method of Aupinel et al., (2005). Larvae were fed for 6 days with different amounts of diets which always contained 50% of an aqueous solution (A, B, C) and 50% royal jelly (w/w). The solutions consisted of yeast extract (A=2%, B=3%, C=4%), glucose and fructose (A=12%, B=15%, C=18% each). 50 g portions of royal jelly (purchased from the Styrian school of beekeepers) were freeze stored at −20° C. Once a day all components of the needed diet were mixed freshly, warmed and fed to the larvae with a micro-pipette. On day 1 and 2 each larva was fed with 10 μL of diet A, on day three with 20 μL of diet B, on day four (30 μL), five (40 μL) and six (50 μL) with diet C. This way, each larva was supported with a total amount of 160 μL of food. The test compounds (see Table 4) were added each at the respective concentration on day 1, i.e. stearic acid (10 μg/larva), lysophosphatidylinositol (5 μg/larva), linoleic acid (12 μg/larva) and oleyol-LPC (10 μg/larva). Each larva was checked for its state of health under the binocular before feeding. A larva was defined healthy when movements of spiracles could be observed and it was shiny and plump. Cups with dead larvae were removed from the plate to prevent infections. To avoid microbial contamination, feeding took place under a laminar flow. Larvae were incubated at 34.5° C. and 90% RH. The mortality rates of the larvae are given below in table 4.1.

## CCCCCCCC/C=C\CCCCCCCC(=O)OC[C@@H](O)COP(=O)([O-])OCC[N+](C)(C)C [1-O-oleoyl-sn-glycero-3-phosphocholine]
Paenibacillus larvae; 24 h, vegetative forms of Pl, liquid medium, read-out: MIC (ppm)
  MIC: 2 to 5 µg/mL
Paenibacillus larvae; in vitro, read-out: in vitro Pl inhibitory activity, MIC
  MIC: 2.5 µg/mL
Paenibacillus larvae; vegetative forms of Pl, liquid medium, read-out: MIC
  MIC: > 3.8 µM
Paenibacillus larvae; in vitro
  inhibitory / antibacterial activity against Pl (in words): good in vitro Pl inhibitory activity
Honeybee larvae
  Ndead larvae day 1: 0
  Ndead larvae day 2: 7
  Ndead larvae day 3: 1
  Ndead larvae day 4: 1
  Ndead larvae day 5: 0
  Ndead larvae day 6: 0
  Ndead larvae day 7: 4
Honeybee larvae; days 1-7
  Ndead larvae total: 13

Reference: patent US9993492B2, “Lysophospholipids and lysophospholipid analogues against honeybee brood diseases” (University of Graz, priority 2013, dated 2018)
